For test [1], the system named is N2a. As to the kind of experiment: Inhibition of Amyloid beta (25 to 35)-induced oxidative damage in mouse Neuro2a cells assessed as reduction in ROS production by measuring reduction in fluorescence intensity at 50 ug/ml pretreated for 2 hrs followed by amyloid beta (25 to 35) addition and measured after 24 hrs by DCFH-DA staining -based spectrofluorimetric assay. Type of test: functional, cell-based. To be noted: dose 50.0 µg/ml, time 26.0 hrs.

Test [2] concerns N2a. Put plainly: Inhibition of Amyloid beta (25 to 35)-induced macromolecular damage in mouse Neuro2a cells assessed as reduction in lipid peroxidation by measuring MDA content at 50 ug/ml pretreated for 2 hrs followed by amyloid beta (25 to 35) addition and measured after 24 hrs per mg protein (reference value: 106.4 +/-1.9 nmol). The class given is functional. The following applies: dose 50 µg/ml; time 26 hrs.

Test [3] deals with N2a. As to the kind of experiment: Inhibition of Amyloid beta (25 to 35)-induced macromolecular damage in mouse Neuro2a cells assessed as reduction in protein oxidation by measuring protein carbonyl content at 50 ug/ml pretreated for 2 hrs followed by amyloid beta (25 to 35) addition and measured after 24 hrs per mg protein (reference value: 44.06 +/- 1.02 […]). The following applies: dose 50 µg/ml; time 26 hrs. Type of test: functional.

For test [4], the system named is N2a. As to the kind of experiment: Inhibition of Amyloid beta (25 to 35)-induced mitochondrial membrane potential loss in mouse Neuro2a cells at 50 ug/ml pretreated for 2 hrs followed by amyloid beta (25 to 35) addition and measured after 24 hrs by rhodamine 123 staining based fluorescent spectrophotometry. Type of test: functional, cell-based. The following applies: dose 50.0 µg/ml, time 26.0 hrs.

Test [5] has as its system N2a. Put plainly: Neuroprotective activity against Amyloid beta (25 to 35)-induced toxicity in mouse Neuro2a cells assessed as non-apoptotic viable cells at 50 ug/ml pretreated for 2 hrs followed by amyloid beta (25 to 35) addition and measured after 24 hrs by AO/EtBr dual staining based fluorescence microscopy (reference value: 53.4 +/-3.88%). The class given is functional. To be noted: dose 50 µg/ml; time 26 hrs.

For test [6], the system named is N2a. As to the kind of experiment: Inhibition of Amyloid beta (25 to 35)-induced apoptosis in mouse Neuro2a cells assessed as Bax/Bcl2 ratio at 50 ug/ml pretreated for 2 hrs followed by amyloid beta (25 to 35) addition and measured after 24 hrs by Western blot analysis (reference value: 1.09 +/- 0.018). Type of test: functional. The following applies: dose 50 µg/ml; time 26 hrs. On the technique in general: Immunoblotting shows a protein as a band on a membrane.

Active and inactive are the calls of the source. The calls are words filed in the database; no cut-off is given here.

The text below walks through data of ChEMBL document CHEMBL5329217, “Hesperidin Methyl Chalcone reduces extracellular Aβ(25-35) peptide aggregation and fibrillation and also protects Neuro 2a cells from Aβ(25-35) induced neuronal dysfunction” (Bioorg Med Chem, 2023).

Consider `COc1cc2c(cc1OC)C(=O)C(CC1CCN(Cc3ccccc3)CC1)C2` (stereo unspecified) [DONEPEZIL], for which the inhibition entry in the test with N2a [1] and in the test on N2a [4] was “Active” throughout. The Activity in the test on N2a [2] is 56.6 nmol; in the test with N2a [3], 25.1 nmol/mg; in the test on N2a [5], 79%. For the same compound, the Ratio in the test on N2a [6] came to 0.57.
